US8530517B2, “Retinoid derivatives endowed with cytotoxic and/or antiangiogenic properties” (Sigma-Tau Industrie Farmaceutiche Riunite S.p.A., priority 2008, dated 2013)
Counter-ions that a name gives are not always drawn. Like-named read-outs stand apart in the source and are kept apart here.

Legend:
[1] = test system: NCI-H460 non-small cell lung carcinoma cells; experiment: Cytotoxicity on NCI-H460 tumor cell line (sulphorodamine B test); format: cell-based; conditions: further 48 h in drug-free medium, read-out: NCI-H460 IC50 μM ± SD
Procedure: To evaluate the effect of the compounds on survival cells, the sulphorodamine B test was used. To test the effects of the compounds on cell growth, NCI-H460 non-small cell lung carcinoma cells were used. Tumor cells were grown in RPMI 1640 containing 10% fetal bovine serum (GIBCO).
Tumor cells were seeded in 96-well tissue culture plates at approximately 10% confluence and were allowed to attach and recover for at least 24 h. Varying concentrations of the drugs were then added to each well to calculate their IC50 value (the concentration which inhibits the 50% of cell survival). The plates were incubated at 37° C. for 24 h. At the end of the treatment, the plates were washed by remotion of the surnatant and addition of PBS. Medium culture (200 μL) was added again and the plates were incubated for further 48 h at 37° C. 200 μl PBS and 50 μl of cold 80% TCA were added. The plates were incubated on ice for at least 1 h. TCA was removed, the plates were washed 3 times for immersion in distilled-water and dried on paper and at 40° C. for 5 min. Then 200 μl of 0.4% sulphorodamine B in 1% acetic acid were added. The plates were incubated at room temperature for other 30 min. Sulphorodamine B was removed, the plates were washed for immersion in 1% acetic acid for 3 times, then they were dried on paper and at 40° C. for 5 min. Then 200 μl Tris 10 mM were added, the plates were kept under stirring for 20 min. The survival cell was determined as optical density by a Multiskan spectrofluorimeter at 540 nm. The amount of cells killed was calculated as the percentage decrease in sulphorodamine B binding compared with control cultures, the latter involving the use of (2E)-3-[3′-(1-adamantyl)-4′-hydroxy[1,1′-biphenyl]-4-yl]-2-propenoic acid (ST1926).
The IC50 values were calculated with the “ALLFIT” program.

A431 tumour cells = experiment: In vivo study on A431 epidermoid carcinoma; conditions: iv 10 mg/10 ml/kg, qdx3/wx2w, after two weeks of treatment, sc A431 in CD1 nude mice; p=0.036 versus vehicle
Procedure: The tumour was generated by subcutaneous injection of A431 tumour cells (5×10^6/100 μl/mouse), in 0.1 ml medium Tc199 in the right flank of CD1 nude mice. 3 days after tumour injection, ST5589 was delivered iv at a dose of 10 mg/10 ml/kg according to the schedule qdx3/wx2w in a group of 9 mice.
To evaluate the antitumour activity of ST5589, tumour diameters were measured biweekly with a Vernier caliper and tumour volume was calculated according to the formula TV=d^2×D/2
where d and D are the shortest and longest diameters, respectively.
The efficacy of the drug was assessed as the tumour volume inhibition according to the formula reported underneath: […]

[2] = test system: human ovarian cancer cell line A2780; experiment: Cytotoxicity on A2780 tumor cell line; format: cell-based; conditions: 5 Mm as printed in head (text: 5 μM), preliminary results; for inhibition at 5 µM: Homo sapiens, A2780
Procedure: The antiproliferative effect of the compounds is reported as percentages of inhibition of cellular proliferation measured at 5 μM as reported in table 3.

[3] = Chemical stability in solution at various pH; format: physicochemical; conditions: after 24 h at pH 7.4
Procedure: The compounds were screened at various pH in order to test their relative chemical stability in solution. All of them resulted stable after incubation for 3 h at pH=1.2. Chemical stability was also investigated at pH=7.4 after 24 h incubation.

[4] = Homo sapiens, NCI-H460, 24 h treatment

SMILES	IC50 [1, 4]	inhibition at 5 µM [2]	other results
CC(C)NC(=O)Oc1ccc(-c2ccc(/C=C/C(=O)O)cc2)cc1C12CC3CC(CC(C3)C1)C2 [Example 12]	–	–	IC50 ([1]; 24 h treatment): 5 µM
Cl.O=C(O)/C=C/c1ccc(-c2ccc(OC(=O)CCCN3CCOCC3)c(C34CC5CC(CC(C5)C3)C4)c2)cc1 [Example 4, 4-morpholin-4-yl-butyric acid 3-adamantan-1-yl-4′-((E)-2-carboxy-vinyl)-biphenyl-4-yl ester hydrochloride]	0.22 ± 0.009 µM	94%	reduction in tumour volume (tumour volume inhibition) (A431 tumour cells): 34%
O=C(O)/C=C/c1ccc(-c2ccc(OC(=O)NCCN3CCOCC3)c(C34CC5CC(CC(C5)C3)C4)c2)cc1 [Example 9, (E)-3-[3′-adamantan-1-yl-4′-(2-morpholin-4-yl-ethyl-carbamoyloxy)-biphenyl-4-yl]-acrylic acid hydrochloride]	0.92 ± 0.05 µM	90%	–
O=C(O)/C=C/c1ccc(-c2ccc(OC(=O)C3CC3)c(C34CC5CC(CC(C5)C3)C4)c2)cc1 [Example 16, (E)-cyclopropanecarboxylic acid 3-adamantan-1-yl-4′-(2-carboxyvinyl)-biphenyl-4-yl ester]	–	–	IC50 ([1]; 24 h treatment): 0.85 ± 0.03 µM; % Inhibition at 5 Mm on A2780 cell line [2]: 93%
O=C(O)/C=C/c1ccc(-c2ccc(OC(=O)NCC(=O)O)c(C34CC5CC(CC(C5)C3)C4)c2)cc1 [Example 7, (E)-3-(3′-adamantan-1-yl-4′-carboxymethylcarbamoyloxy-biphenyl-4-yl)-acrylic acid]	3 ± 0.1 µM	26%	–
CNCCNC(=O)Oc1ccc(-c2ccc(/C=C/C(=O)O)cc2)cc1C12CC3CC(CC(C3)C1)C2 [Example 6, (E)-3-[3′-adamantan-1-yl-4′-(2-methylamino-ethylcarbamoyloxy)-biphenyl-4-yl]-acrylic acid]	0.24 ± 0.008 µM	93%	–
O=C(O)/C=C/c1ccc(-c2ccc(OC(=O)COCCOCCOCC(=O)O)c(C34CC5CC(CC(C5)C3)C4)c2)cc1 [Example 2, (E)-3-(3′-adamantan-1-yl-4′-{2-[2-(2-carboxymethoxy-ethoxy)-ethoxy]-acetoxy}-biphenyl-4-yl)-acrylic acid]	0.17 ± 0.007 µM	93%	–
CC(C)[C@H](N)C(=O)Oc1ccc(-c2ccc(/C=C/C(=O)O)cc2)cc1C12CC3CC(CC(C3)C1)C2 [Example 1, (S)-2-amino-3-methyl-butyric acid 3-adamantan-1-yl-4′-((E)-2-carboxy-vinyl)-biphenyl-4-yl ester hydrochloride]	0.51 ± 0.003 µM	93%	–
COCCOCOc1ccc(-c2ccc(/C=C/C(=O)O)cc2)cc1C12CC3CC(CC(C3)C1)C2 [Example 15, (E)-3-[3′-Adamantan-1-yl-4′-(2-methoxyethoxymethoxy)-biphenyl-4-yl]acrylic acid]	4.2 ± 0.04 µM	78%	–
CC(C)C[C@H](NC(=O)Oc1ccc(-c2ccc(/C=C/C(=O)O)cc2)cc1C12CC3CC(CC(C3)C1)C2)C(=O)NCC(=O)O [Example 14, (E)-3-{3′-Adamantan-1-yl-4′-[(S)-1-(carboxymethyl-carbamoyl)-3-methyl-butylcarbamoyloxy]-biphenyl-4-yl}-acrylic acid]	3.5 ± 0.2 µM	–	–
CCCOC(=O)OCOc1ccc(-c2ccc(/C=C/C(=O)O)cc2)cc1C12CC3CC(CC(C3)C1)C2 [Example 19]	–	–	IC50 ([1]; 24 h treatment): 0.32 ± 0.01 µM
O=C(O)/C=C/c1ccc(-c2ccc(O)c(C34CC5CC(CC(C5)C3)C4)c2)cc1 [Control, (2E)-3-[3′-(1-adamantyl)-4′-hydroxy[1,1′-biphenyl]-4-yl]-2-propenoic acid, reference compound]	0.13 µM	–	–
O=C(O)/C=C/c1ccc(-c2ccc(OCN3C(=O)c4ccccc4C3=O)c(C34CC5CC(CC(C5)C3)C4)c2)cc1 [Example 17, (E)-3-[3′-Adamantan-1-yl-4′-(1,3-dioxo-1,3-dihydroisoindol-2-ylmethoxy)-biphenyl-4yl]-acrylic acid]	8.4 ± 1.6 µM	–	–
NC1(C(=O)Oc2ccc(-c3ccc(/C=C/C(=O)O)cc3)cc2C23CC4CC(CC(C4)C2)C3)CC1.O=C(O)C(F)(F)F [Example 20, (E)-1-[3-Adamantan-1-yl-4′-(2-carboxyvinyl)-biphenyl-4-yloxycarbonyl]-cyclopropyl-ammonium trifluoroacetate]	0.1 ± 0.003 µM	94%	amount of E-4-(3-(1-adamantyl)-4-hydroxyphenyl)cinnamic acid (hydrolysed parent compound) [3]: 8%
N#CCOc1ccc(-c2ccc(/C=C/C(=O)O)cc2)cc1C12CC3CC(CC(C3)C1)C2 [Example 21, (E)-3-(3′-Adamantan-1-yl-4′-cyanomethoxybiphenyl-4-yl)-acrylic acid]	0.85 ± 0.06 µM	–	–
O=C(O)/C=C/c1ccc(-c2ccc(OC(=O)NC3CCN(C(=O)OCc4ccccc4)CC3)c(C34CC5CC(CC(C5)C3)C4)c2)cc1 [Example 13, 4-[3-adamantan-1-yl-4′-((E)-2-carboxy-vinyl)-biphenyl-4-yloxycarbonylamino]-piperidine-1-carboxylic acid benzyl ester]	5 µM	71%	–
NCCCCNC(=O)Oc1ccc(-c2ccc(/C=C/C(=O)O)cc2)cc1C12CC3CC(CC(C3)C1)C2 [Example 8, (E)-3-[3′-adamantan-1-yl-4′-(4-amino-butylcarbamoyloxy)-biphenyl-4-yl]-acrylic acid hydrochloride]	2.6 ± 0.08 µM	70%	–
CCCCCCCCCCCNC(=O)Oc1ccc(-c2ccc(/C=C/C(=O)O)cc2)cc1C12CC3CC(CC(C3)C1)C2 [Example 10, (E)-3-(3′-adamantan-1-yl-4′-undecyl-carbamoyloxy-biphenyl-4-yl)-acrylic acid]	–	–	IC50 ([1]; 24 h treatment): 1.39 ± 0.04 µM; % Inhibition at 5 Mm on A2780 cell line [2]: 90%
CCCCCC=CC/C=C/CCCCCCCC(=O)Oc1ccc(-c2ccc(C=CC(=O)O)cc2)cc1C12CC3CC(CC(C3)C1)C2 [Example 18, (E)-Octadeca-9,12-dienoic acid 3-adamantan-1-yl-4′-(2-carboxyvinyl)-biphenyl-4-yl ester]	7.8 ± 0.7 µM	55%	–
CN1CCN(CCCC(=O)Oc2ccc(-c3ccc(/C=C/C(=O)O)cc3)cc2C23CC4CC(CC(C4)C2)C3)CC1 [Example 5, 4-(4-methyl-piperazin-1-yl)-butyric acid 3-adamantan-1-yl-4′-((E)-2-carboxy-vinyl)-biphenyl-4-yl ester dihydrochloride]	0.24 ± 0.01 µM	92%	–
O=C(O)/C=C/c1ccc(-c2ccc(OC(=O)N3CCC(N4CCCCC4)CC3)c(C34CC5CC(CC(C5)C3)C4)c2)cc1 [Example 11, [1,4′]bipiperidinyl-1′-carboxylic acid 3-adamantan-1-yl-4′-((E)-2-carboxy-vinyl)-biphenyl-4-yl ester hydrochloride]	> 20 µM	–	–
CCCCCCCCCCC(=O)Oc1ccc(-c2ccc(/C=C/C(=O)O)cc2)cc1C12CC3CC(CC(C3)C1)C2 [Example 3, undecanoic acid 3-adamantan-1-yl-4′-((E)-2-carboxy-vinyl)-biphenyl-4-yl ester]	1.54 ± 0.08 µM	94%	–
O=C(O)/C=C/c1ccc(-c2ccc(OCCN3CCOCC3)c(C34CC5CC(CC(C5)C3)C4)c2)cc1 [Example 23, (E)-3-[3′-Adamantan-1-yl-4′-(2-morpholin-4-yl-ethoxy)biphenyl-4-yl]-acrylic acid]	> 5 µM	–	–
